Key:
thymus gland = conditions: rat, in vivo, sc, 11520 min
Description: 2) Experiment on thymolytic action
The compounds to be tested are dissolved in a liquid consisting of croton oil : cotton seed oil : ethanol = 1:89:10 and the solution is used for injection.
The rats are anesthesized by inhalation of ether and 20 ml of air are subcutaneously injected into hypodermic organ at the back of the rats using a thin injection needle to form an oval-shaped air cavity. After the rats recovered from anesthesia they are kept on normal food and water. At 8th days after injection, rats are killed by depletion and dissected. The thymus gland is taken out and the wet weight is measured. Thymus weights obtained on the test compounds are divided with those obtained on control, and thymus gland atrophy rate is obtained.
In each of the experiments on anti-inflammatory activity and thymolytic action, clobetasol 17-propionate and betamethasone 17,21-dipropionate are used standard compounds and anti-inflammatory activity ratio and thymolytic activity ratio against clobetasol 17-propionate are calculated using linear regression parallel test method.

edema = experiment: Topical anti-inflammatory activity (croton oil ear edema); type: in vivo, Male mice of ddY-strain; conditions: for R=A/B: anti-inflammatory activity ratio (A) divided by thymolytic activity ratio (B); for Anti-inflammatory activity ratio (A): ratio against clobetasol 17-propionate (=1), linear regression parallel test method, edema-repressing rate, topical application to mouse ear with croton oil, 5th hour after application
Description: 0.9 % sodium chloride, 0.4 % Tween 80, 0.5 % carboxymethyl cellulose and 0.9 % benzyl alcohol are dissolved or suspended in distilled water, which is used as a suspending medium. The compounds to be tested are dissolved in a mixture of the suspending medium : pyridine : diethyl ether = 1 : 4 : 5 and mixed with equal volume of diethyl ether containing 10 % croton oil and the mixture is used as the test liquid. Commercially available felt having a thickness of 5 mm is cut in 7mm x 7 mm square and adhered to ring tweezers using alkyl-a-cyanoacrylate. The felt is soaked in the test liquid and the liquid is applied to the right ear of the mouse by rubbing it with the felt at a fixed pressure without anesthesia. The left ear is left untreated. At 5th hours after application, mice are killed and both of the ears are cut and weighed. The rate (%) of increase in the weight of right ear against that of left ear is calculated as the edema ratio. Edema ratios obtained on the test compounds are compared with those obtained on control and edema-repressing rate is obtained.

Row | Molecule | Thymolytic activity ratio (B) (thymus gland) | R=A/B (edema) | Anti-inflammatory activity ratio (A) (edema)
1 | COC(=O)CCC(=O)O[C@]1(C(=O)CCl)[C@@H](C)C[C@H]2[C@@H]3CC(=O)C4=CC(=O)C=C[C@]4(C)[C@@]3(F)[C@@H](O)C[C@@]21C [Example 13, 21-chloro-9α-fluoro-16β-methyl-1,4-pregnadiene-11β,17α-diol-3,6,20-trione 17α-(β-methoxycarbonyl propionate)] | <0.01 | >100 | 1.0
2 | CCOC(=O)CCCC(=O)O[C@]1(C(=O)CCl)[C@@H](C)C[C@H]2[C@@H]3CCC4=CC(=O)C=C[C@]4(C)[C@@]3(F)[C@@H](O)C[C@@]21C [Example 15, 21-chloro-9α-fluoro-16β-methyl-1,4-pregnadiene-11β,17α-diol-3,20-dione 17a-(y-ethoxycarbonyl butyrate)] | 0.012 | 57 | 0.68
3 | COC(=O)CCC(=O)O[C@]1(C(=O)CCl)[C@H](C)C[C@H]2[C@@H]3CCC4=CC(=O)C=C[C@]4(C)[C@@]3(F)[C@@H](O)C[C@@]21C [Example 14, 21-chloro-9α-fluoro-16α-msthyl-1,4-pregnadiene-11β,17α-diol-3,20-dione 17α-(β-methoxycarbonyl propionate)] | <0.01 | > 20 | 0.2
4 | COC(=O)CCC(=O)O[C@]1(C(=O)CCl)[C@@H](C)C[C@H]2[C@@H]3CCC4=CC(=O)C=C[C@]4(C)[C@@]3(F)[C@@H](O)C[C@@]21C [Example 12, 21-chloro-9α-fluoro-16β-methyl-1,4-pregnadiene-11β,17α-diol-3,20-dione 17a-(6-methoxycarbonyl propionate)] | 0.072 | 18 | 1.3
5 | COC(=O)O[C@]1(C(=O)CCl)[C@@H](C)C[C@H]2[C@@H]3CCC4=CC(=O)C=C[C@]4(C)[C@@]3(F)[C@@H](O)C[C@@]21C [Comparative Example 2, 21-chloro-9α-fluoro-16β-methyl-1,4-pregnadiene-11β,17α-diol-3,20-dione 17a-methyl carbonate, reference compound] | 1.2 | 0.8 | 0.96
6 | 21-chloro-9α-fluoro-16β-methyl-1,4-pregnadiene-11β,17α-diol-3,6,20-trione 17a-ethyl carbonate [Example 4] | 0.048 |  | 1.3
7 | CCCOC(=O)O[C@]1(C(=O)CCl)[C@@H](C)C[C@H]2[C@@H]3CC(=O)C4=CC(=O)C=C[C@]4(C)[C@@]3(F)[C@@H](O)C[C@@]21C [Example 6, 21-chloro-9α-fluoro-16β-methyl-1,4-pregnadiene-11β,17α-diol-3,6,20-trione 17a-propyl carbonate] | 0.24 | 3.1 | 0.74
8 | CCC(=O)O[C@]1(C(=O)CCl)[C@@H](C)C[C@H]2[C@@H]3CCC4=CC(=O)C=C[C@]4(C)[C@@]3(F)[C@@H](O)C[C@@]21C [Clobetasol 17-propionate, clobetasol 17-propionate, reference compound] | 1 | 1 | 
9 | 21-chloro-9a-fluoro-16a-methyl-l,4-pregnadiene-11β,17α-diol-3,6,20-trione 17a-methyl carbonate [Example 8] |  |  | 0.51
10 | CCC(=O)OCC(=O)[C@@]1(OC(=O)CC)[C@@H](C)C[C@H]2[C@@H]3CCC4=CC(=O)C=C[C@]4(C)[C@@]3(F)[C@@H](O)C[C@@]21C [Betamethasone 17,21-dipropionate, betamethasone 17,21-dipropionate, reference compound] | 0.030 | 2.7 | 0.080
11 | CCC(=O)O[C@]1(C(=O)CCl)[C@@H](C)C[C@H]2[C@@H]3CC(=O)C4=CC(=O)C=C[C@]4(C)[C@@]3(F)[C@@H](O)C[C@@]21C [Comparative Example 1, 21-chloro-9α-fluoro-16β-methyl-1,4-pregnadiene-11S,17a-diol-3,6,20-trione 17a-propionate, reference compound] | 0.29 | 1.8 | 0.53
12 | 21-chloro-9α-fluoro-16β-mathyl-1,4-pregnadiene-11β,17α-diol-3,6,20-trione 17α-methyl carbonate [Example 2] | 0.018 |  | 3.0
13 | CCOC(=O)CCC(=O)O[C@]1(C(=O)CCl)[C@@H](C)C[C@H]2[C@@H]3CCC4=CC(=O)C=C[C@]4(C)[C@@]3(F)[C@@H](O)C[C@@]21C [Example 17, 21-chloro-9α-fluoro-16β-methyl-1,4-pregnadien-11β,17α-diol-3,20-dione 17α-(β-ethoxycarbonyl propionate)] | 0.007 | 80 | 0.56

From patent EP0136586A2, “Novel corticoid derivatives and process for production thereof” (priority 1983, dated 1985)
